{"source": "patent US10179142B2", "about": "“Treatment and/or prevention of bone metastasis” (The Arizona Board of Regents on behalf of The University of …, priority 2013, dated 2019)", "type_in_all_cases": "cell-based, human", "key": {"PC-3 cells [1]": {"system": "PC-3 cells", "assay": "Matrigel invasion assay", "details": "for invasion: prostate cancer cells, concentration not given", "description": "PC-3 cells were pre-treated with DMSO vehicle control or with drug for 4 hours in T-25 flasks. Thereafter, 50,000 cells were then plated into the upper chamber that has been pre-coated with Matrigel (BD Sciences, San Jose, Ca) in the presence of drug or DMSO and serum-free media. The bottom well contained complete media including 10% FBS and 0.5% BSA as chemoattractants. After 24 hours, the upper chambers were removed, and any remaining cells within the insert were wiped with a cotton swab. Invading cells were then stained with 2% crystal violet in 20% methanol. Cells were then counted using a Zeiss stereomicroscope at 20× power. 10 random fields were counted. The results represent an average of two independent experiments, each run in triplicates.\nAs reported previously, inhibition of Tiam-1 and subsequent inactivation of downstream signaling proteins leads to reduced actin cytoskeleton rearrangements resulting in decreased cell motility. […] FIG. 4, Panel A, A wound channel was introduced near-to-confluent non-treated or treated PC-3 cells with 10 μM V pKLO1 mock-transfection control cells, and shRNA cell line 1.2 (GS-1). […] FIG. 4, Panel B, PC-3 cells and Tiam-1 shRNA cell line 1.2 (shRNA 1.2) were treated as indicated, then stimulated with 20% FBS for 20 minutes to induce lamellipodia formation and stained with rhodamin phalloidin. Individual lamellipodia were counted in a minimum of 10 cells in each respective group and statistical analysis was performed using a Student's t-test. […] FIG. 4, Panel C, pKLO1 PC-3 cells, pKLO1 treated with 10 μM compound V and shRNA 1.2 cells were allowed to invade through Matrigel-coated transwell plates. Invading cells were stained after 12 hours and counted at 20× power (left side). […] In order to test our hypothesis, cells were stained with rhodamin phalloidin and then analyzed for actin/cytoskeleton formations, such as lamellipodia. […] Thus, the observed reduction in cellular motility in compound V treated cells and Tiam-1 silenced cells may be the result of f-actin disruption and reduced frequencies of lamellipodia formation. […]"}, "PC-3 cells [2]": {"system": "PC-3 cells", "assay": "Migration wound closure assay", "details": "for migration / motility (wound healing): prostate cancer cells, concentration not given", "description": "PC-3, DU145 and LNCaP cells were grown in six-well plates in the presence of 10% FBS. Once the cells formed a monolayer, near confluency a wound was done manually with a sterile […] pipette tip in the center of each well. Cells were treated with vehicle alone (DMSO) or 10 μM of compound IV and were grown in the presence of 2% FBS. After 18 hours, the migrating cells were photographed. The wound closure was quantified by measuring the distance between the two sides of the wound. The results represent an average of two independent experiments, each run in triplicates.\nAs reported previously, inhibition of Tiam-1 and subsequent inactivation of downstream signaling proteins leads to reduced actin cytoskeleton rearrangements resulting in decreased cell motility. […] FIG. 4, Panel A, A wound channel was introduced near-to-confluent non-treated or treated PC-3 cells with 10 μM V pKLO1 mock-transfection control cells, and shRNA cell line 1.2 (GS-1). […] FIG. 4, Panel B, PC-3 cells and Tiam-1 shRNA cell line 1.2 (shRNA 1.2) were treated as indicated, then stimulated with 20% FBS for 20 minutes to induce lamellipodia formation and stained with rhodamin phalloidin. Individual lamellipodia were counted in a minimum of 10 cells in each respective group and statistical analysis was performed using a Student's t-test. […] FIG. 4, Panel C, pKLO1 PC-3 cells, pKLO1 treated with 10 μM compound V and shRNA 1.2 cells were allowed to invade through Matrigel-coated transwell plates. Invading cells were stained after 12 hours and counted at 20× power (left side). […] In order to test our hypothesis, cells were stained with rhodamin phalloidin and then analyzed for actin/cytoskeleton formations, such as lamellipodia. […] Thus, the observed reduction in cellular motility in compound V treated cells and Tiam-1 silenced cells may be the result of f-actin disruption and reduced frequencies of lamellipodia formation. We next tested whether the compound of Formula V affected invasion of PC-3 through Matrigel-coated transwells."}, "PC-3 cells [3]": {"system": "PC-3 cells", "assay": "Lamellipodia forming assay", "description": "Glass coverslips were sterilized with 100% EtOH and placed in 6-well plates. PC-3 cells, pKLO.1, GS-1 and GS-2 cells were plated at 3000 cells/well and allowed to adhere overnight. Cells where then serum starved for 48 hours, then treated with the indicated drug for 12 hours, and stimulated with 20% FBS for 30 minutes. Coverslips were then removed from the plates, washed twice with cold PBS, and fixed with 3.7% paraformaldehyde solution in PBS for 10 minutes. Cells were then permeabilized using 0.1% Triton X-100 for 5 minutes. Cells were stained with rhodamine phalloidin (Invitrogen, Carlsbad, Calif.) for 20 minutes using the supplied protocol. Coverslips were then air-dried and mounted using ProLong Gold with DAPI (Invitrogen, Carlsbad, Calif.) and stored at 4° C. Cells were visualized at 40× using Olympus Bx-50 microscope with the CellSens imaging software. Individual lamellipodia were counted in a minimum of 10 cells in each respective group and statistical analysis was done using a Student's t-test.\nAs reported previously, inhibition of Tiam-1 and subsequent inactivation of downstream signaling proteins leads to reduced actin cytoskeleton rearrangements resulting in decreased cell motility. […] FIG. 4, Panel A, A wound channel was introduced near-to-confluent non-treated or treated PC-3 cells with 10 μM V pKLO1 mock-transfection control cells, and shRNA cell line 1.2 (GS-1). […] FIG. 4, Panel B, PC-3 cells and Tiam-1 shRNA cell line 1.2 (shRNA 1.2) were treated as indicated, then stimulated with 20% FBS for 20 minutes to induce lamellipodia formation and stained with rhodamin phalloidin. Individual lamellipodia were counted in a minimum of 10 cells in each respective group and statistical analysis was performed using a Student's t-test. […] Invading cells were stained after 12 hours and counted at 20× power (left side). […] In order to test our hypothesis, cells were stained with rhodamin phalloidin and then analyzed for actin/cytoskeleton formations, such as lamellipodia. […]"}, "[4]": {"system": "active Rac1 in PC-3 cells", "assay": "Rac1 activation assay (GLISA)", "details": "1 μM, 4 hours, then 50 ng/ml hHGF for 2 minutes", "description": "Rac1 activity was determined by the colorimetric GLISA Kit BK128 (Cytoskeleton, Inc, Denver, Co). Briefly, PC-3 (PC-3, pKLO.1, GS-1 and GS-2 cells), DU 145 and LNCap cells were grown to 75% confluence and then serum starved for 48 hours. Drugs were then added for 4 hours and cells were stimulated with 50 ng/ml hHGF (Gibco Life Sciences, Carlsbad, Ca) for 2 minutes. Cells were then lysed and harvested as described in the kit-supplied protocol. Protein concentration was normalized to 1.0 g/l. Plates were read in an absorbance spectrophotometer at 490 nm at 24° C. with 5 s medium orbital shaking. Data were analyzed as described in the supplied protocol. The results represent an average of three independent experiments, each run in duplicates.\nA cellular screen of all hit compounds was conducted using the GLISA Rac1 activation kit. Briefly, PC-3 cells were drugged for 4 hours at 1 μM concentration with the selected compounds. Cells were then stimulated with 50 ng/ml of hHGF for 2 minutes. […] The isovolume of Tiam-1 PH domain (PDB 1FOE) was generated using GRID for the H-bond acceptor (−3.6 kcal/mol), the H-bond donor (−7.3 kcal/mol) and hydrophobic (−2.5 kcal/mol) probes. The critical residues are labeled around the isovolume surfaces. The dash lines represent hydrogen bonds between protein and inhibitors. […]"}, "prostate cancer cells": {"system": "prostate cancer cells", "assay": "Colony formation (FIG. 4, cell line not given)", "description": "PC-3, LNCaP and DU145 cells were plated at 1000 cells/well into standard 6-well plates (3.5 cm) in the presence of complete media. The next day cells were drugged at increasing concentrations ranging from 1 to 50 μM in triplicate wells. Cells were viewed twice weekly to check for colony growth and confluence. Media and respective drugs were carefully replaced every three days. At day 12, media was aspirated and resulted colonies were stained with crystal violet (0.5% w/v) dissolved in ethanol for one minute, washed with water, and air dried as already described in reference. The resulting colonies were counted utilizing an Optronix Colony counter using ColCount software (Oxford Optronix Ltd, UK). The results represent an average of two independent experiments, each run in triplicates."}, "[5]": {"details": "prostate cancer cells, concentration not given"}}, "note": "“Also recorded” adds a separate entry of the source."}
{"smiles": "c1ccc(Cn2nnc3c(Sc4nnc(-c5ccncc5)o4)ncnc32)cc1", "note": "[VI]", "values": [{"measurement": "invasion", "setting": "PC-3 cells [1]", "value": "inhibits; also recorded: reduce invasion"}, {"measurement": "migration / motility (wound healing)", "setting": "PC-3 cells [2]", "value": "inhibits; also recorded: reduce migration"}, {"measurement": "lamellipodia formation", "setting": "PC-3 cells [3]; [5]", "value": "inhibits; also recorded: reduce lamellipodia formation"}, {"measurement": "reduction of active Rac1", "setting": "[4]", "value": "most pronounced and significant reduction of active Rac1"}, {"measurement": "colony formation", "setting": "prostate cancer cells", "value": "inhibits"}]}
{"smiles": "Cc1ccc(-n2cc(-c3cccs3)nc2SCc2n[nH]c(=S)n2Cc2ccccc2)cc1", "note": "[compound V]", "values": [{"measurement": "invasion through Matrigel-coated transwells", "setting": "PC-3 cells [1]; PC-3 cells, 10 μM", "value": "significantly reduced amount of invading cells"}, {"measurement": "invasion", "setting": "PC-3 cells [1]", "value": "inhibits; also recorded: reduce invasion"}, {"measurement": "wound closure", "setting": "PC-3 cells [2]; PC-3 cells, 10 μM, after 18 hours", "value": "significant inability to close a wound"}, {"measurement": "migration / motility (wound healing)", "setting": "PC-3 cells [2]", "value": "inhibits; also recorded: reduce migration"}, {"measurement": "lamellipodia formation", "setting": "PC-3 cells [3]; PC-3 cells, 10 μM, stimulation with 20% FBS", "value": "significantly reduced the frequency of lamellipodia formation"}, {"measurement": "lamellipodia formation", "setting": "PC-3 cells [3]; [5]", "value": "inhibits; also recorded: reduce lamellipodia formation"}, {"measurement": "reduction of active Rac1", "setting": "[4]", "value": "most pronounced and significant reduction of active Rac1"}, {"measurement": "colony formation", "setting": "prostate cancer cells", "value": "inhibits"}]}
